# Legend:
# [1] = system: progesterone receptor; settings: in vivo; cited from earlier work
# [2] = literature; cited from earlier work
# [3] = literature; cited from earlier work; remark: listed apart in the source
# [4] = in vivo; cited from earlier work
# [5] = system: estrogen receptor-positive breast cancer; settings: McCague; cited from earlier work
# [6] = target: T1, estrogen receptor (Sus scrofa, UniProt Q29040); test: Estrogen receptor binding in pig uterus cytosol, displacement of [3H]estradiol
# T1 construct: uteri (90 gm) were obtained from immature domestic swine (15 kg); from tissue; host or cells: uterus cytosol (100,000 g supernatant, charcoal-treated) of immature domestic swine
# T1 sequence (Q29040 1-595): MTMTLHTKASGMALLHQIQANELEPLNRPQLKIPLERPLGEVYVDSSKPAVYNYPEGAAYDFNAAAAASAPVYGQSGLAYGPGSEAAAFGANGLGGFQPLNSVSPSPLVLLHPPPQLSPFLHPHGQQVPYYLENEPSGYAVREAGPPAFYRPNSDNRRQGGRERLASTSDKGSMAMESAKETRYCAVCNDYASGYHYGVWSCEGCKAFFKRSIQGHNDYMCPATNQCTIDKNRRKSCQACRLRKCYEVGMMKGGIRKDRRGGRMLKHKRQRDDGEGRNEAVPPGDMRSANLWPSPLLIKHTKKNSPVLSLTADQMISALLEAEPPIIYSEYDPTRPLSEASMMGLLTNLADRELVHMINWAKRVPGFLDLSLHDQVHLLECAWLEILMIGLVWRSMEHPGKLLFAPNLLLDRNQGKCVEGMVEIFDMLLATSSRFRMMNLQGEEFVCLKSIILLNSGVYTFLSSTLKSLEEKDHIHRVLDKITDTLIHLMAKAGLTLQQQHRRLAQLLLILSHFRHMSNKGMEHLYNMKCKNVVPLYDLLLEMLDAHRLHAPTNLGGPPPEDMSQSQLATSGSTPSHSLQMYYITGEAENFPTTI
# Description: done at 4° C. […] The protein
# three experiments. In each experiment, triplicate samples were tested.
# ^2 IC50 : Concentration required to decrease the amount of bound
# ^3 RBA: Relative binding affinity is the IC50 ratio between
# [7] = target: T2, estrogen receptor (Rattus norvegicus, UniProt P06211); test: Animal studies (imaging agents); format: in vivo
# T2 construct: from tissue
# T2 sequence (P06211 1-600): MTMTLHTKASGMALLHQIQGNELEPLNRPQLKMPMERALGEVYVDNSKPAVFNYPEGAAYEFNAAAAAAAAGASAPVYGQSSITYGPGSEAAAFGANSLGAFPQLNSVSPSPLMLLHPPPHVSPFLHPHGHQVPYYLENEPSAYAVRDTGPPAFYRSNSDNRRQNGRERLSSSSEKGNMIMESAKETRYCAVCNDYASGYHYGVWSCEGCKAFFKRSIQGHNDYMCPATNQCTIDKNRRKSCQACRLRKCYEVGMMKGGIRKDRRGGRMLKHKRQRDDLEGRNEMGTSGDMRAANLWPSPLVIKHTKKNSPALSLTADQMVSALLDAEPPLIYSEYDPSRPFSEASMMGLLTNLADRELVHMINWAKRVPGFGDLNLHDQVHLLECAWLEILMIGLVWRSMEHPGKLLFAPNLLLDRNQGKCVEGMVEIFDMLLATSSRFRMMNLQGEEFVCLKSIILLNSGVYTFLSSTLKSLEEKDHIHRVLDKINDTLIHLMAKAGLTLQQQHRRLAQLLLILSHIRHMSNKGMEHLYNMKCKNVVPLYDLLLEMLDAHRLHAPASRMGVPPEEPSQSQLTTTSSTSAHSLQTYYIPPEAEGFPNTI
structure (smiles),measurement,setting,value
"CC[C@@H]1C[C@H]2[C@@H]3CCC4=CC(=O)CC[C@@H]4[C@H]3CC[C@]2(C)[C@H]1C(=O)C[18F] [FENP, 21-[^18 F]fluoro-16-α-ethyl-19-norprogesterone]",uterine target tissue uptake,[1],high specific uterine target tissue uptake
CC/C(=C(\c1ccc(O)cc1)c1ccc(OCCN(C)C)cc1)c1ccccc1 [4-hydroxytamoxifen],anti-estrogen activity in vitro,[2],potent anti-estrogen in vitro
same,activity in vivo versus tamoxifen,[3],less effective than tamoxifen in vivo
same,ability to cross the cell membrane,[4],polarity reduces its ability to cross the cell membrane
same,glucuronidation and excretion,[4],"rapid glucuronidation of the hydroxyl group, followed by excretion"
CC/C(=C(\c1ccc(I)cc1)c1ccc(OCCN(C)C)cc1)c1ccccc1 [Compound 4-iodo],potency in detecting estrogen receptor-positive breast cancer,[5],greater potency than tamoxifen
CCN(CC)CCOc1ccc(/C(=C(/CCCBr)c2ccccc2)c2ccccc2)cc1 [Compound XI],"estrogen receptor binding, result in words",[6]; listed as Bromomethyl tamoxifen,binds to estrogen receptors with greater affinity than the other halogenated tamoxifen analogs tested
same,"estrogen receptor binding, result in words",[6]; listed as bromomethyl-Tx analogs,"bind to estrogen receptors greater than other halogenated tamoxifens tested with F, Cl, or I"
same,results in animal studies,[7],produced the most superior results in animal studies
